Structures can show the parent of a compound that is named as a salt.
Tested on: p27 levels in LNCaP-S14 cells
Assay: p27 immunofluorescence screening assay in LNCaP-S14 cells; note: test concentration or dose not given here
Conditions: cell line not given; for % positive: p27-positive cells; for Z score: Table 1, standard deviations from plate mean
[1] = Table 1, compounds showing SMIP activity in the secondary screen

Structure (SMILES) | % positive [1] [%] | Z score | % positive ([…]) [%]
O=C(CSC1=NNC(c2ccccn2)S1)c1cccc(F)c1 (centres unmarked) [1-(3-fluorophenyl)-2-[(5-pyridin-2-yl-4,5-dihydro-1,3,4-thiadiazol-2-yl)sulfanyl]ethanone] | 25.37 | 15.1024 | 
O=c1c(C(F)(F)F)cccn1CCc1nc(-c2ccccc2)cs1 [1-[2-(4-phenyl-1,3-thiazol-2-yl)ethyl]-3-(trifluoromethyl)pyridin-2(1H)-one] | 10.24 | 4.1344 | 
Cc1cccn2c(=O)c3c(nc12)CCN(C(=O)c1ccc(C(C)(C)C)cc1)C3 [2-(4-tert-butylbenzoyl)-6-methyl-1,2,3,4-tetrahydro-11H-dipyrido-[1,2-a:4′,3′-d]pyrimidin-11-one] | 19.38 | 10.7588 | 
CS(=O)(=O)c1ccc(/C=C/C(=O)Nc2cccc(C(F)(F)F)c2)cc1 [3-[4-(methylsulfonyl)phenyl]-N-[3-trifluoromethyl]phenyl]-(2E)-propenamide] | 41.56 | 26.8318 | 
O=C1C(Cl)=C(N2CCC(C(=O)N3CCOCC3)CC2)C(=O)c2ccccc21 [3-chloro-2-[4-(morpholine-4-carbonyl)-1-piperidyl]naphthalene-1,4-dione] | 12.42 | 5.7130 | 
COc1cc(OC)c(CN2CC[C@H](NC(=O)c3ccc(-n4nc(C(C)(C)C)cc4C(C)(C)C)cc3)C2)c(OC)c1 [4-(3,5-di-tert-butyl-1H-pyrazol-1-yl)-N-[(3S)-1-(2,4,6-trimethoxybenzyl)pyrrolidin-3-yl]benzamide] | 14.27 | 7.0595 | 
CC1CN(C(=O)c2cc(-c3ccc(Cl)cc3)cs2)CC(C)O1 (centres unmarked) [4-[[(4-(4-chlorophenyl)thiophen-2-yl]carbonyl]-2,6-dimethylmorpholine] | 23.93 | 14.0559 | 
Nc1ncn([C@@H]2O[C@H](CO)[C@@H](O)[C@H]2O)c(=O)n1 [5-Azacytidine, reference compound] | 10.87 | 4.5963 | 
CCCCCCSc1nnc(N)s1 [5-hexylsulfanyl-1,3,4-thiadiazol-2-amine] | 38.52 | 24.6282 | 
Cc1[nH]cnc1-c1ccc(C(F)(F)F)cc1 [5-methyl-4-(4-(trifluoromethyl)phenyl)-(1H)-imidazole] | 7.89 | 2.4371 | 
CCOC(=O)c1cc2cccc(NC(=O)c3ccccc3OC(C)=O)c2[nH]1 [7-[(2-acetoxybenzoyl)amino]-1H-indole-2-carboxylic acid, ethyl ester] | 51.60 | 34.1083 | 
COc1ccc2[nH]cc(CCNC(=O)OC[C@@H]3C[C@H]4CC[C@@H]3C4)c2c1 [(1R,2R,4S)-bicyclo[2.2.1]hept-2-ylmethyl[2-(5-methoxy-1H-indol-3-yl)ethyl]carbamate] | 19.39 | 10.7664 | 
O=C(OCn1ncc(Cl)c(Cl)c1=O)c1ccc(C(F)(F)F)cc1 [(4,5-dichloro-6-oxo-pyridazin-1-yl)methyl-4-(trifluoromethyl)benzoate] | 33.92 | 21.2964 | 
O=C(OCn1ncc(Cl)c(Cl)c1=O)c1cccc(C(F)(F)F)c1 [(4,5-dichloro-6-oxopyridazin-1(6H)-yl)methyl-3-(trifluoromethyl)benzoate] | 8.67 | 3.0023 | 
CC[C@@]1(O)C[C@H](O[C@H]2C[C@H](N(C)C)[C@H](O[C@H]3C[C@H](O)[C@H](O[C@H]4CCC(=O)[C@H](C)O4)[C@H](C)O3)[C@H](C)O2)c2c(cc3c(c2O)C(=O)c2c(O)cccc2C3=O)[C@H]1C(=O)OC [Aclarubicin, reference compound] |  | 4.5990 | 10.89
CCCCC(CC)CNC(=N)NC(=N)NCCCCCCNC(=N)NC(=N)NCC(CC)CCCC (centres unmarked) [Alexidine hydrochloride, reference compound] | 17.48 | 9.38 | 
COc1ccc(CCN2CCC(Nc3nc4ccccc4n3Cc3ccc(F)cc3)CC2)cc1 [Astemizole, reference compound] | 7.37 | 2.0598 | 
CC(C)COCC(CN(Cc1ccccc1)c1ccccc1)N1CCCC1 (centres unmarked) [Bepridil hydrochloride, reference compound] | 8.54 | 2.9020 | 
CC[C@@]1(O)C(=O)OCc2c1cc1n(c2=O)Cc2cc3ccccc3nc2-1 [Camptothecin, reference compound] | 37.17 | 23.6514 | 
[H]/N=C(\N/C(=N/[H])NCCCCCCNC(=N)NC(=N)Nc1ccc(Cl)cc1)Nc1ccc(Cl)cc1 [Chlorhexidine hydrochloride, reference compound] | 25.83 | 15.4338 | 
CN(C)CC/C=C1/c2ccccc2Sc2ccc(Cl)cc21 [Chlorprothixene hydrochloride, reference compound] | 7.49 | 2.1477 | 
Cc1cc(C2CCCCC2)n(O)c(=O)c1 [Ciclopirox olamine, reference compound] | 28.54 | 17.3996 | 

Structure (SMILES) | % positive [1] [%] | Z score | % positive ([…]) [%]
Cc1cc(N)c2ccccc2[n+]1CCCCCCCCCC[n+]1c(C)cc(N)c2ccccc21 [Dequalinium chloride, reference compound] | 30.24 | 18.6318 | 
Oc1ccc(Cl)cc1Cc1cc(Cl)ccc1O [Dichlorophene, reference compound] | 12.27 | 5.6065 | 
C=C(CC)C(=O)c1ccc(OCC(=O)O)c(Cl)c1Cl [Ethacrynic acid, reference compound] | 18.71 | 10.2724 | 
COc1cc([C@@H]2c3cc4c(cc3[C@@H](O[C@@H]3O[C@@H]5CO[C@@H](C)O[C@H]5[C@H](O)[C@H]3O)[C@H]3COC(=O)[C@H]23)OCO4)cc(OC)c1O [Etoposide, reference compound] | 39.92 | 25.6406 | 
COC(=O)Nc1nc2ccc(Sc3ccccc3)cc2[nH]1 [Fenbendazole, reference compound] | 4.46 | −0.0511 | 
Cc1cc2c(C(C)C)c(O)c(O)c(C=O)c2c(O)c1-c1c(C)cc2c(C(C)C)c(O)c(O)c(C=O)c2c1O [Gossypol, reference compound] |  | 3.1932 | 8.94
CC[C@@H](C(=O)[C@@H](C)[C@@H](O)[C@H](C)CCc1ccc(C)c(O)c1C(=O)O)[C@H]1O[C@](CC)([C@H]2CC[C@](O)(CC)[C@H](C)O2)C[C@@H]1C [Lasalocid sodium, reference compound] | 45.21 | 29.4743 | 
O=c1cc(-c2ccc(O)c(O)c2)oc2cc(O)cc(O)c12 [Luteolin, reference compound] | 19.15 | 10.5904 | 
OC(c1cc(C(F)(F)F)nc2c(C(F)(F)F)cccc12)C1CCCCN1 (centres unmarked) [Mefloquine, reference compound] | 17.66 | 9.5116 | 
CC1=CC(=O)c2ccccc2C1=O [Menadione, reference compound] | 38.33 | 24.4943 | 
CSc1ccc2c(c1)C(N1CCN(C)CC1)Cc1ccccc1S2.O=C(O)/C=C\C(=O)O (centres unmarked) [Methiothepin maleate, reference compound] | 9.08 | 3.2976 | 
CN(C)c1ccc(O)c2c1C[C@H]1C[C@H]3[C@H](N(C)C)C(O)=C(C(N)=O)C(=O)[C@@]3(O)C(O)=C1C2=O [Minocycline hydrochloride, reference compound] | 46.17 | 30.1696 | 
CO[C@@]12[C@H](COC(N)=O)C3=C(C(=O)C(C)=C(N)C3=O)N1C[C@@H]1N[C@@H]12 [Mitomycin C, reference compound] | 42.52 | 27.5299 | 
CCC1(C2OC(C3OC(O)(CO)C(C)CC3C)CC2C)CCC(C2(C)CCC3(CC(O)C(C)C(C(C)C(OC)C(C)C(=O)[O-])O3)O2)O1.[Na+] (centres unmarked) [Monensin, sodium salt, sodium 4-[2-[5-ethyl-5-[5-[6-hydroxy-6-(hydroxymethyl)-3,5-dimethyl-oxan-2-yl]-3-methyl-oxolan-2-yl]oxolan-2-yl]-9-hydroxy-2,8-dimethyl-1,6-dioxaspiro[4.5]decan-7-yl)-3-methoxy-2-methyl-pentanoate, reference compound] |  | 33.5974 | 50.90
CCN(CC)c1cc(-c2ccc(F)cc2)nc(-c2ccncc2)n1 [N,N-diethyl-6-(4-fluorophenyl)-2-pyridin-4-yl-pyrimidin-4-amine] | 4.69 | 0.1118 | 
CC(C)(C)c1cc2cc(NS(=O)(=O)c3ccc(Cl)cc3)ccc2[nH]1 [N-(2-tert-butyl-(1H)-indol-5-yl)-4-chlorobenzenesulfonamide] | 37.42 | 23.8290 | 
COc1ccc(S(=O)(=O)Nc2ccc3[nH]c(C(C)(C)C)cc3c2)cc1 [N-(2-tert-butyl-(1H)-indol-5-yl)-4-methoxybenzenesulfonamide] | 29.15 | 17.8415 | 
CCC(=O)N(Cc1cccc(Cl)c1)c1ccc2[nH]c(C(C)(C)C)cc2c1 [N-(2-tert-butyl-(1H)-indol-5-yl)-N-(3-chlorobenzyl)propanamide] | 33.19 | 20.7674 | 
Cc1cc(Br)ccc1NC(=O)CCCc1c[nH]c2ccccc12 [N-(4-bromo-2-methyl-phenyl)-4-(1H-indol-3-yl)butanamide] | 30.52 | 18.8304 | 
COc1ccc(S(=O)(=O)Nc2cccc3cc(C(=O)NCc4ccc(Cl)cc4)[nH]c23)cc1 [N-(4-chlorobenzyl)-7-[((4-methoxyphenyl)sulfonyl)amino]-(1H)-indole-2-carboxamide] | 11.30 | 4.9019 | 
COc1ccc(S(=O)(=O)N(Cc2ccc(Cl)cc2)Cc2ccc3cc[nH]c3c2)cc1 [N-(4-chlorobenzyl)-N-[((1H)-indol-6-yl)methyl]-4-methoxybenzenesulfonamide] | 9.23 | 3.4074 | 

From US20090054312A1, “SMIPs: Small molecule inhibitors of p27 depletion in cancers and other proliferative diseases” (priority 2007, published 2009)
